The values that follow come from patent US20170071990A1 (Pizeta Group Srl, priority 2014, published 2017).

Data set [1] relates to lactobacilli tested, either alone or in combination. To be noted: 0.625% boric acid.
The subject of data set [2] is Candida albicans. Particulars: summary statement of the description.
In data set [3] the test system is mixture of four lactobacilli. To be noted: mix of four lactobacilli, 24 hours at 37° C., 5% CO2, 0.625% boric acid; MRS without boric acid 7.63 × 10^6.
The conditions of data set [4]: vaginal suppositories 600 mg/ovule, throughout the duration of the treatment; cited from earlier work.
The subject of data set [5] is Lactobacillus gasseri. To be noted: L. gasseri single culture, 24 hours at 37° C., 5% CO2, 0.625% boric acid; MRS without boric acid 7.28 × 10^6.
Data set [6] has as its system Lactobacillus crispatus. Particulars: L. crispatus single culture, 24 hours at 37° C., 5% CO2, 0.625% boric acid; MRS without boric acid 1.19 × 10^7.
Data set [7] relates to Candida albicans. Particulars: cited from earlier work.
Data set [8] relates to Gardnerella vaginalis. To be noted: summary statement of the description.
Data set [9] has as its system Lactobacillus rhamnosus. Particulars: L. rhamnosus single culture, 24 hours at 37° C., 5% CO2, 0.625% boric acid; MRS without boric acid 7.45 × 10^6.
Data set [10] has as its system Lactobacillus jensenii. Particulars: L. jensenii single culture, 24 hours at 37° C., 5% CO2, 0.625% boric acid; MRS without boric acid 7.63 × 10^6.
Where [11] appears, read: low concentrations, non-therapeutic doses, first 24 hours.

Consider `OB(O)O` [boric acid], for which the “inhibitory effect on the growth of the lactobacilli” value in data set [1] is “no inhibitory effect”. In data set [2], the “activity against Candida albicans” value was “good activity”. Besides, the “lactobacilli culture count, MRS with boric acid” value in data set [3] is recorded as 7.40 × 10^6; in data set [5] it was 2.37 × 10^6; in data set [6] it was 6.29 × 10^6; in data set [9], 3.17 × 10^6; in data set [10], 7.47 × 10^6. Moreover, in [4], the “circulation levels of boric acid” value was “under 1 μg/ml”. Also, in data set [7] (in vitro tests), the “pH at which the substance completely inhibits the growth of Candida albicans” value is 5-5.9. For the same molecule, in data set [7] (setting [11]), the cellular ergosterol entry is “decrease”. In addition, the “inhibition of the micro-organisms growth, planktonic and biofilm form” value in [7] (setting [11]) was “moderate inhibition”. Besides, the “activity against Gardnerella vaginalis” value in [8] is “poor activity”.
